Results taken from paper PMC7143549, “Anticancer Activities of Meroterpenoids Isolated from the Brown Alga Cystoseira usneoides against the Human Colon Cancer Cells HT-29” (Foods, 2020).
In brackets after ≈: the same amount, converted by molar mass. Like-named read-outs stand apart in the source and are kept apart here.

Key:
[1] = system: HT-29 human colon carcinoma cells; experiment: Sulforhodamine B (SRB) cell viability assay, HT-29; format: cell-based; settings: for IC50: Homo sapiens, HT-29, 72 h; for Selectivity Index (SI): IC50 for normal cells CCD 841 CoN / IC50 for cancer cells HT-29
Description: (§1) Cell viability was quantified using the Sulforhodamine B assay described by Skehan et al.. Cells were plated with a density of 5 × 10^3 (HT-29) and 1 × 10^4 (CCD 841 CoN) cells/well and allowed to attach at 37 °C in an atmosphere with 5% CO2. After 24 h, the AMTs dissolved in DMSO were added to the cells (final concentrations of 10, 20, 30, and 50 µg/mL and less than 0.05% of DMSO) and the plates were incubated for 72 h. Then, the cells were fixed by adding 50 μL of TCA (50%) to each well and the plates were maintained for 1 h at 4 °C. The plates were washed five times with deionized water, air-dried, and stained for 30 min at room temperature with 100 μL of 0.4% (w/v) SRB prepared in 1% (v/v) acetic acid. The plates were rinsed quickly five times with 1% acetic acid to remove unbound dye, followed by air-drying. The bound dye was solubilized in 2 mM Tris base (100 μL/well) for 5 min. Optical densities were read on a microplate reader (Spectrophotometer LabsystemsMultiskan EX, λ 492 nm). Three independent assays were conducted, each one in duplicate. A standard curve was constructed for each experiment and used for converting the measured optical density values into numbers of viable cells/well. The inhibition rate was used to evaluate the cell viability and its algorithm was the following formula: ((ODcontrol − ODtreatment)/ODcontrol) × 100; OD, optical density. The OD492 for control cells was taken as 100% viability. The half maximal inhibitory concentration (IC50) was calculated. The selectivity index (SI) of each compound was calculated as IC50 of the compound against the CCD 841 CoN normal cell line/IC50 of the same compound against the HT-29 cancer cell line.

HT-29 colon cancer cells [2] = experiment: Cell cycle analysis by flow cytometry (PI); format: cell-based, human; settings: 24 h; 30 μg/mL of 1, 2, 5, 6, 7, 8 and 90 μg/mL of 3 and 4 (Figure 4B)
Description: HT-29 cells (1 × 10^6 cells/well) were seeded in six-well plates and incubated for 24 h, followed by treatment with AMTs dissolved in DMSO (final concentrations of 10, 20, and 30 µg/mL for compounds 1, 2, 5, 6, 7, and 8, and 30, 60, and 90 µg/mL for compounds 3 and 4, and always below 0.05% DMSO) and 24 h of additional incubation. Colchicine (final concentration of 0.2 μg/mL) was used as positive control. The cells were then washed, harvested with trypsin, and centrifuged at 1500 rpm (5 min, 25 °C). The resulting pellet was fixed with ice-cold 70% ethanol (1 mL/10^6 cells) and the samples were stored at −4°C overnight. After fixation, the cells were washed with PBS, stained with PBS containing 5 mg/mL of RNase A, and incubated for 48 h at 4 °C. Subsequently, 50 μL of 0.1 mg/mL of IP was added and incubated for 1 h at 4 °C. The relative DNA content per cell was analyzed using a Cytomics FC500 flow cytometer (Beckman Coulter, Indianapolis, IN, USA). The data acquisition was performed with the DML program and the analysis of the acquired data with the CXP Software (Beckman Coulter, Indianapolis, IN, USA).

[3] = system: normal human colonic epithelial cells CCD 841 CoN; experiment: Sulforhodamine B (SRB) cell viability assay, CCD 841 CoN; format: cell-based; settings: normal colon cells, 72 h of treatment, mean ± SE of three experiments, read-out: IC50 CCD841 CoN
Description: as §1

HT-29 cells [4] = experiment: Wound migration assay; format: cell-based, human; settings: 24 h, wound-healing; for inhibition at 10 µg/mL: Homo sapiens, HT-29, 10 μg/mL, read-out: inhibition of cell migration
Description: For cell migration assay, HT-29 cells were seeded in six-well culture plates and allowed to grow to 80%–90% confluence for the experiment. After aspirating the medium, similar sized wounds were performed in the monolayer cells using a sterile micropipette tip. Wounded monolayer cells were washed three times with PBS to remove cell debris and then replaced with complete McCoy’s medium. HT-29 cells were treated with the AMTs (10 µg/mL for compounds 1, 2, 5, 6, 7, and 8, and 30 µg/mL for compounds 3 and 4) and incubated for 24h. For the image analysis of the effect of each treatment on cell migration, the wounded area was photographed immediately after scratching and after 24 h. The level of cell migration was determined using NIH Image software (Image J 1.44g, Wayne Rasband, USA) and then expressed as a percentage of wound closure area using the equation: Migration rate (%) = [(wound area at 0 h − wound area at 24 h)/wound area at 0 h] × 100%.

HT-29 colon cancer cells [5] = experiment: Annexin V-FITC/PI flow cytometry apoptosis induction assay; format: cell-based, human; settings: 24 h; for necrosis (dead cells): 30 μg/mL
Description: Quantitative assessment of apoptosis was performed by flow cytometry using an Annexin V-FITC Apoptosis Detection Kit. Briefly, 1 × 10^6 HT-29 cells were seeded per well in six-well plates and incubated for 24 h, followed by the addition of the AMTs dissolved in DMSO (final concentrations of 10, 20, and 30 µg/mL for compounds 1, 2, 5, 6, 7, and 8, and 30, 60, and 90 µg/mL for compounds 3 and 4, and less than 0.05% DMSO) and incubation for 24 h. Curcumin (final concentrations of 50 and 75 μM) was used as positive control. The cells were then washed, harvested with trypsin, and centrifuged at 1500 rpm (5 min, 25 °C). The pellet was resuspended in 195 µL of 1 × Annexin buffer and then stained with 5 μL of Annexin V-FITC and 10 μL of PI for 10 min at room temperature, in the dark. To this mixture 200 μL of 1 × Annexin buffer was added before analysis using a Cytomics FC500 flow cytometer (Beckman Coulter, Indianapolis, IN, USA). Following a gating strategy, flow cytometry plots of size (FS) and complexity (SS) of the HT-29 cells were previously established for the elaboration of a measurement protocol. The normal healthy cells, early apoptosis, late apoptosis, and necrotic populations were represented by annexin V-negative/PI-negative population, annexin V-positive/PI-negative, annexin V-positive/PI-positive and annexin-negative/PI-positive cells, respectively. A total of 10,000 cellular events in each sample were analyzed using DML program.

p-JNK in HT-29 cells = experiment: Western blot of phosphorylated JNK; format: cell-based, human; settings: 24 h; 10 and 20 μg/mL for 1, 2, 5, 6, 7, 8; 30 and 60 μg/mL for 3 and 4
Description: (§2) Cells were cultured to 80% confluence at 37 °C. After 24 h of treatment with the compounds (10 and 20 µg/mL for compounds 1, 2, 5, 6, 7, and 8, and 30 and 60 µg/mL for compounds 3 and 4), HT-29 cells were rinsed twice with ice-cold PBS, and then lysed immediately in lysis buffer (250 mM NaCl, 50 mM Tris (pH 7.5), 0.5 mM EDTA, 5 mM EGTA, 8 mM MgCl2, 1 mM PMSF, 0.01 mg/mL pepstatin A, 0.01 mg/mL leupeptin, 0.01 mg/mL aprotinin, 1% Triton X-100). After centrifugation at 12,000 g for 3 min at 4°C to separate the cellular debris, the supernatant was collected and stored at −80°C until use. The protein concentrations were determined using Bio-Rad Protein Assay (BioRad, Richmond, CA, USA), according to the manufacturer’s instructions.
(§3) Equal protein content (50 μg) samples of cell lysates were separated on 10% SDS–polyacrylamide gel and transferred to polyvinylidene difluoride membranes (Hybond-P, Amershan Biosciences, Little Chalfont, UK). The membranes were blocked with 5% (w/v) non-fat dry milk in Tris-buffered saline containing 0.1% Tween-20 buffer (pH 7.4) (TBST) for 1 h at room temperature and incubated with agitation with specific antibodies: anti-pERK1/2 (Cell Signaling; 1:1000), anti-pJNK (Cell Signaling; 1:1000), anti-pAKT (Cell Signaling; 1:1000), anti-β-actin (Sigma-Aldrich; 1:500). Membranes were incubated overnight at 4°C with gentle shaking. The secondary antibody was a peroxidase-conjugated goat anti-mouse or -rabbit antibody (1:10,000; DakoCytomation, Carpinteria, CA, USA). After washing the membrane three times in TBST buffer (10 min), the signals were detected using an enhanced chemiluminescence light-detecting kit (Super-Signal West Pico Chemiluminescent Substrate, Pierce, IL, USA), according to the manufacturer’s instructions and exposed to an X-ray film (GE Healthcare Ltd., Amersham, UK). The protein band densities were analyzed and quantified with a Scientific Imaging Systems (Biophotonics ImageJ Analysis Software, National Institute of Mental Health, Bethesda, MD, USA). β-actin was used to confirm the equal loading and transfer of proteins.

p-AKT in HT-29 cells = experiment: Western blot of phosphorylated AKT; format: cell-based, human; settings: 24 h; 10 and 20 μg/mL for 1, 2, 5, 6, 7, 8; 30 and 60 μg/mL for 3 and 4
Description: as §2, §3

p-ERK1/2 in HT-29 cells = experiment: Western blot of phosphorylated ERK1/2; format: cell-based, human; settings: 24 h; 10 and 20 μg/mL
Description: as §2, §3

HT-29 cells [6] = settings: cited from earlier work
[7] = colon cancer cells, 72 h of treatment, SRB, mean ± SE of three experiments

Compound	IC50 [1, 7]	IC50 HT-29 [1, 7]	Selectivity Index (SI) [1]	accumulation of cells at the G2/M phase (cell cycle arrest, words) (HT-29 colon cancer cells [2])	IC50 [3]	inhibition of cell migration (HT-29 cells [4]; 30 μg/mL (methods, Figure 5B))	induction of apoptosis or death of HT-29 cells (HT-29 colon cancer cells [5]; 4 tested at 30-90 μg/mL, 7 at 10-30 μg/mL)	phospho-JNK level vs control (p-JNK in HT-29 cells)	expression of p-AKT protein vs control (p-AKT in HT-29 cells)	p-ERK1/2 level vs control (p-ERK1/2 in HT-29 cells)	inhibition at 10 µg/mL (HT-29 cells [4])	necrosis (dead cells) (HT-29 colon cancer cells [5])	IC50 growth of HT-29 cells (HT-29 cells [6])	IC50 (HT-29 cells [6]; read-out: IC50 growth of HT-29 cells)	IC50 growth of HT-29 cells (HT-29 cells [6]; value in brackets, converted from μM)
sargachromanol R													3.4 µg/mL		
zonaquinone acetate														17.3 µM	7.8 µg/mL

Second part, led by results:

IC50 [1, 7]	IC50 HT-29 [1, 7]	Compound	Selectivity Index (SI) [1]	accumulation of cells at the G2/M phase (cell cycle arrest, words) (HT-29 colon cancer cells [2])	IC50 [3]	inhibition of cell migration (HT-29 cells [4]; 30 μg/mL (methods, Figure 5B))	induction of apoptosis or death of HT-29 cells (HT-29 colon cancer cells [5]; 4 tested at 30-90 μg/mL, 7 at 10-30 μg/mL)	phospho-JNK level vs control (p-JNK in HT-29 cells)	expression of p-AKT protein vs control (p-AKT in HT-29 cells)	p-ERK1/2 level vs control (p-ERK1/2 in HT-29 cells)	inhibition at 10 µg/mL (HT-29 cells [4])	necrosis (dead cells) (HT-29 colon cancer cells [5])	IC50 growth of HT-29 cells (HT-29 cells [6])	IC50 (HT-29 cells [6]; read-out: IC50 growth of HT-29 cells)	IC50 growth of HT-29 cells (HT-29 cells [6]; value in brackets, converted from μM)
34.3 µg/mL (≈ 95.7 µM)	36.86 ± 2.86 µg/mL (≈ 103 µM)	COc1c(C)cc(O)cc1C/C=C(\C)CC(=O)/C=C(/C)CCCC(C)=O [Compound 4, cystomexicone A]	1.68	significant	61.9 ± 2.37 µg/mL (≈ 173 µM)	no significant effects	did not induce neither apoptosis nor death	decreased phosphorylation	significantly downregulated						
7.83 ± 0.05 µg/mL (≈ 17.1 µM)		COc1c(C)cc(O)cc1C/C=C(\C)CC(=O)/C=C(/C)CCCC(C)C(=O)/C=C/C(C)(C)O (stereo not drawn) [Compound 5, 6-cis-amentadione-1′-methyl ether]	5.23	significant	41 ± 9.8 µg/mL (≈ 89.7 µM)			decreased phosphorylation	no significant reduction	significantly reduced	36.2%	72.75%			
10.7 ± 0.27 µg/mL (≈ 23.5 µM)		COc1c(C)cc(O)cc1C/C=C(\C)CC(=O)/C=C(\C)CCCC(C)C(=O)/C=C/C(C)(C)O (centres unmarked) [Compound 6, amentadione-1′-methyl ether]	4.51	not significant	48.4 ± 3.84 µg/mL (≈ 106 µM)				no significant reduction	significantly reduced	45.3%	59.55%			
